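Five concentrations, 48 hours, 96-well plates. GI50 marks 50% less growth.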 Activity calls are given as the source filed them. No stated cut-off is given here; in the data, active = GI50 up to about 1.1 µM and inactive = higher.

Test systems include HCT-15; MDA-N; MOLT-4; TK-10; HL-60; CAKI-1; OVCAR-5; NCI-H460; SF-268; SN12C; ACHN; IGROV-1; SK-MEL-5; Hs-578T; UACC-257; RPMI-8226; MDA-MB-231; HCT-116; UACC-62; NCI-H522.
Holding throughout (assay): NCI anticancer screen, dose series, 48 h

Consider `Cc1ccc(N(C(=O)Nc2ccccc2)C2=NCC(C)S2)cc1C` (stereo unspecified), for which the GI50 with HCT-15 is 15.4 µM; in the assay on MDA-N it was 17.6 µM (inactive); in the assay with MOLT-4, > 10 µM (inactive); with TK-10, 21 µM (inactive); in the assay on HL-60, 20.1 µM (inactive); in the assay on CAKI-1, > 10 µM (inactive). Besides, the GI50 is 23.1 µM (inactive) in the assay with OVCAR-5; 18 µM (inactive) with NCI-H460; 24 µM (inactive) in the assay on SF-268; 13.7 µM (inactive) with SN12C; 28.7 µM (inactive) in the assay with ACHN; 22.4 µM (inactive) with IGROV-1. For the same molecule, the GI50 with SK-MEL-5 is 17 µM (inactive); in the assay with Hs-578T, 23.2 µM (inactive); in the assay on UACC-257 it was > 10 µM (inactive); in the assay on RPMI-8226, 20 µM (inactive); with MDA-MB-231 it was 18.7 µM (inactive); with HCT-116, 16.4 µM (inactive).
For the molecule `CCN1C(=O)C(=C/C=C/c2ccc(N(CC)CC)cc2)C(=O)N(CC)C1=S`, the GI50 in the assay with UACC-62 was 87.5 µM (inactive); with HCT-15, greater than 100 µM; in the assay on MDA-N, 74.8 µM (inactive); with MOLT-4, 33.9 µM (inactive); in the assay with TK-10, > 100 µM (inactive); in the assay on HL-60, 23.6 µM (inactive). Besides, the GI50 in the assay with CAKI-1, in the assay with OVCAR-5, with NCI-H460, with SF-268, in the assay with SN12C and in the assay with ACHN was > 100 µM (inactive) in each case. Further, the GI50 with IGROV-1, in the assay with SK-MEL-5, in the assay on Hs-578T, with UACC-257, in the assay on RPMI-8226 and in the assay on MDA-MB-231 was > 100 µM (inactive) throughout. The GI50 in the assay on HCT-116 is > 100 µM (inactive).
As for `CC(=O)NC1C(OCc2ccccc2)OC(CO)C(O)C1OCC(=O)NC(C)C(=O)NC(CCC(=O)NCCCCNc1ccc([N+](=O)[O-])c2[nH]c3ccccc3c(=O)c12)C(N)=O` (stereo unspecified), the GI50 is 65 µM with HCT-15; > 100 µM (inactive) with MDA-N; 92.9 µM (inactive) in the assay on TK-10; > 100 µM (inactive) with HL-60; > 100 µM (inactive) with CAKI-1; > 100 µM (inactive) in the assay with OVCAR-5. For the same molecule, the GI50 in the assay on NCI-H460 was 68.5 µM (inactive); in the assay on SF-268, 38.8 µM (inactive); in the assay on SN12C, > 100 µM (inactive); in the assay with ACHN, 48.9 µM (inactive); in the assay with IGROV-1 it was 56 µM (inactive); in the assay with Hs-578T, 29.6 µM (inactive). For the same molecule, the figures for the GI50 with MDA-MB-231 and in the assay on HCT-116 were > 100 µM (inactive) and 63.7 µM (inactive), respectively.
As to `N#Cc1c(N2CCOCC2)[nH]c(=O)c(C(c2c(Cl)cccc2Cl)c2c(O)c(C#N)c(N3CCOCC3)[nH]c2=O)c1O`, the GI50 in the assay on UACC-62 is 16.6 µM (inactive); in the assay on HCT-15, 15 µM; with MOLT-4 it was 16.1 µM (inactive); in the assay on TK-10 it was 17.5 µM (inactive); in the assay with HL-60 it was 12.9 µM (inactive); in the assay on CAKI-1, 18.1 µM (inactive). The GI50 with OVCAR-5 was 14 µM (inactive); in the assay with NCI-H460, > 100 µM (inactive); in the assay with SF-268, 19.5 µM (inactive); in the assay on SN12C it was 20.1 µM (inactive); in the assay with ACHN, 16.1 µM (inactive); with IGROV-1 it was 18.1 µM (inactive). Besides, the GI50 was 16.6 µM (inactive) in the assay with SK-MEL-5; 19.5 µM (inactive) with Hs-578T; 17.8 µM (inactive) in the assay with UACC-257; 21.4 µM (inactive) in the assay on RPMI-8226; 16.6 µM (inactive) in the assay with MDA-MB-231; 13.4 µM (inactive) in the assay on NCI-H522. In the assay with HCT-116, the GI50 is 28.3 µM (inactive).
`CCOC(=O)n1[nH]c(=O)n(-c2ccccc2)c1=O`: the GI50 was > 100 µM (inactive) in the assay with UACC-62; greater than 100 µM in the assay with HCT-15; > 100 µM (inactive) in the assay on MDA-N; > 100 µM (inactive) in the assay on MOLT-4; > 100 µM (inactive) in the assay on TK-10; > 100 µM (inactive) in the assay with HL-60. In addition, the GI50 in the assay with CAKI-1, with OVCAR-5, with NCI-H460, with SF-268, with SN12C and in the assay on ACHN was > 100 µM (inactive) each time. Moreover, the GI50 in the assay on IGROV-1, in the assay with SK-MEL-5, in the assay on Hs-578T, in the assay with UACC-257, in the assay with RPMI-8226 and with MDA-MB-231 was > 100 µM (inactive) each time. Also, in the assay with HCT-116, the GI50 is > 100 µM (inactive).
For the molecule `O=C(/C(=C\I)c1ccccc1)c1ccccc1`, the GI50 in the assay on UACC-62 is 3.26 µM (inactive); in the assay on HCT-15 it was 3.33 µM; in the assay with MOLT-4, 18.3 µM (inactive); with TK-10, 16 µM (inactive); in the assay with HL-60, 0.458 µM (active); in the assay on CAKI-1, 1.51 µM (inactive). Moreover, the GI50 in the assay with OVCAR-5 was 17.5 µM (inactive); in the assay with NCI-H460, 10.9 µM (inactive); in the assay with SF-268, 13.9 µM (inactive); with SN12C, 18 µM (inactive); in the assay with ACHN it was 13 µM (inactive); with IGROV-1, 10.8 µM (inactive). The GI50 was 17.3 µM (inactive) in the assay on SK-MEL-5; 3.75 µM (inactive) in the assay with Hs-578T; 4.55 µM (inactive) with UACC-257; 2.48 µM (inactive) in the assay on RPMI-8226; 3.94 µM (inactive) with MDA-MB-231; 4.86 µM (inactive) in the assay with NCI-H522. In addition, the GI50 in the assay on HCT-116 is 11.6 µM (inactive).
In the case of `CC(=O)O[C@H]1CC[C@@]2(C)C(=CC[C@H]3[C@@H]4C/C(=C\c5ccc(N(C)C)cc5)[C@H](OC(C)=O)[C@@]4(C)CC[C@@H]32)C1`, the GI50 was 6.41 µM (inactive) in the assay with UACC-62; 6.27 µM in the assay with HCT-15; 13.5 µM (inactive) in the assay on MDA-N; 5.98 µM (inactive) with MOLT-4; 15.6 µM (inactive) with TK-10; 11.5 µM (inactive) with HL-60. Moreover, the GI50 was 19.6 µM (inactive) in the assay with OVCAR-5; 5.19 µM (inactive) in the assay with NCI-H460; 12.7 µM (inactive) in the assay on SF-268; 14.7 µM (inactive) with SN12C; 8.71 µM (inactive) with ACHN; 13.8 µM (inactive) with IGROV-1. Moreover, the GI50 with SK-MEL-5 was 12.5 µM (inactive); with Hs-578T it was 3.72 µM (inactive); with UACC-257, 6.14 µM (inactive); in the assay on RPMI-8226 it was 4.89 µM (inactive); in the assay on MDA-MB-231, 12.5 µM (inactive); in the assay with HCT-116, 6.37 µM (inactive).
In the case of `O=c1c2c([N+](=O)[O-])cccc2nc2[nH]c3ccccc3n12`, the GI50 in the assay on UACC-62 is 19.5 µM (inactive); with HCT-15, 53.6 µM; with MDA-N it was > 75 µM (inactive); in the assay with MOLT-4 it was > 75 µM (inactive); with TK-10 it was 18.7 µM (inactive); in the assay on HL-60, > 75 µM (inactive). Also, the GI50 was 14.6 µM (inactive) in the assay with CAKI-1; > 75 µM (inactive) in the assay on OVCAR-5; 20.9 µM (inactive) in the assay with NCI-H460; 18.7 µM (inactive) with SF-268; 25.6 µM (inactive) with SN12C; 13.9 µM (inactive) with ACHN. Also, the GI50 in the assay on IGROV-1 is 11.9 µM (inactive); in the assay with SK-MEL-5, 35 µM (inactive); in the assay with Hs-578T it was 26.5 µM (inactive); with UACC-257 it was > 75 µM (inactive); in the assay with RPMI-8226, 64.1 µM (inactive); in the assay on MDA-MB-231, 14.7 µM (inactive). The GI50 in the assay on HCT-116 was 34.1 µM (inactive).
Consider `CCOc1ccccc1N1CSc2nnc(-c3ccccc3)n2C1`, for which the GI50 with UACC-62 was > 100 µM (inactive); with HCT-15, greater than 100 µM; in the assay on MDA-N it was > 100 µM (inactive); in the assay with MOLT-4 it was > 100 µM (inactive); in the assay on TK-10, > 100 µM (inactive); with CAKI-1 it was > 100 µM (inactive). Further, the GI50 in the assay with OVCAR-5, in the assay on NCI-H460, in the assay with SF-268, in the assay on SN12C, with ACHN and with IGROV-1 was > 100 µM (inactive) each time. Besides, the GI50 with SK-MEL-5 is > 100 µM (inactive); in the assay on UACC-257, > 100 µM (inactive); with RPMI-8226, 33.8 µM (inactive); in the assay with MDA-MB-231, > 100 µM (inactive); in the assay with NCI-H522 it was > 100 µM (inactive); with HCT-116, 53.8 µM (inactive).
For `COC(=O)C1=C(OC(=O)/C(=C/c2ccc(Cl)cc2)c2ccccc2)C(C(=O)OC)[C@@]2(O)[C@@H](C(=O)OC)[C@H](C)C[C@@H]1[C@@H]2C(=O)OC` (stereo partly specified), the GI50 is 83.6 µM (inactive) in the assay on UACC-62; greater than 100 µM with HCT-15; > 100 µM (inactive) in the assay on MOLT-4; > 100 µM (inactive) in the assay on TK-10; > 100 µM (inactive) with HL-60; > 100 µM (inactive) in the assay on CAKI-1. The GI50 was > 100 µM (inactive) in the assay on OVCAR-5; 61.4 µM (inactive) in the assay with NCI-H460; > 100 µM (inactive) in the assay on SF-268; > 100 µM (inactive) in the assay with SN12C; > 100 µM (inactive) with ACHN; 23.6 µM (inactive) with IGROV-1. For the same molecule, the GI50 was > 100 µM (inactive) with SK-MEL-5; 37 µM (inactive) with Hs-578T; > 100 µM (inactive) in the assay on UACC-257; > 100 µM (inactive) in the assay with RPMI-8226; > 100 µM (inactive) in the assay on MDA-MB-231; 6 µM (inactive) with NCI-H522. In addition, the GI50 with HCT-116 was > 100 µM (inactive).
In the case of `CC(=O)Nc1ccccc1NC1CC(C)N(c2ccccc2)N1C(C)=O` (stereo unspecified), the GI50 in the assay on UACC-62 is > 10 µM (inactive); in the assay with HCT-15, greater than 10 µM; with MDA-N, > 10 µM (inactive); with MOLT-4, > 10 µM (inactive); in the assay on TK-10, > 10 µM (inactive); in the assay with HL-60, > 10 µM (inactive). The GI50 with CAKI-1, in the assay on SF-268, with SN12C, with IGROV-1, with SK-MEL-5 and with UACC-257 was > 10 µM (inactive) each time. The GI50 in the assay with RPMI-8226 and in the assay on MDA-MB-231 was > 10 µM (inactive) throughout.

The values are drawn from ChEMBL document CHEMBL1201862, “PubChem BioAssay data set” (2004).
